# Assay results as given in publication PMC12389269, “Heteroaryl-Capped Hydroxamic Acid Derivatives with Varied Linkers: Synthesis and Anticancer Evaluation with Various Apoptosis Analyses in Breast Cancer Cells, Including Docking, Simulation, DFT, and ADMET Studies” (Pharmaceuticals, 2025).
# Read-outs that look alike come from different tables or passages of the source.
# How the values were obtained:
# [1] = system: A-549 (Human Lung Cancer Cell Line); assay: SRB antiproliferative assay, A-549; format: cell-based
# Protocol: (§1) Following an extensive review of the literature, we selected human breast cancer (MCF-7, MDA-MB-231) and lung cancer (A549) cell lines to evaluate the anticancer potential of the synthesized compounds, and some compounds with good anti-proliferation activity were again tested to evaluate their cytotoxic potential on A-549, MCF-7, and MDA-MB-231. The same were also tested on one non-cancerous/normal (HEK-293) cell line. All the cell lines for the required screening were developed in a suitable medium comprising 10% FBS and 2mM L-glutamine. Cancerous and non-cancerous/normal cell lines were selected for the cell proliferation and cytotoxicity assay and maintained with 5% CO2 at 37 °C in a CO2 incubator with 100% relative humidity for one complete day before the addition of experimental drugs.
# (§2) Antiproliferative activity through an SRB assay was performed for all the synthesized compounds on A-549 and MCF-7 cell lines. Around 5000 cells/well were quarantined into a 96-well microtiter plate in 100 μL. The synthesized compounds were solubilized in DMSO and diluted to different concentrations before use. The final-drug-concentration aliquots were poured into microtiter wells, and the plates were incubated for 48 h in regular conditions. After adding the final drug concentration, the cells were allowed to set in place and incubated for 60 min. A total of 50 µL of SRB solution (0.4% w/v) in 1% CH3COOH was poured into each well. The plates were then incubated for 20 min at RT. During subsequent staining, the unbounded dye was removed, and the plate reader recorded the eluted bound stain at 540 nm with a 690 nm reference wavelength. The assay was performed precisely using the appropriate reagents and reaction situation, as per the reported procedure. ADR was selected as the reference drug.
# [2] = system: MCF-7 (Human Breast Cancer Cell Line); assay: SRB antiproliferative assay, MCF-7; format: cell-based
# Protocol: as §1, §2
# HDAC1 = biological target: T1, HDAC1 (Homo sapiens, UniProt Q13547); assay: HDAC inhibition assay (color de lys ELISA kit), HDAC1; format: biochemical; settings: HeLa nuclear extract as source of HDAC activity
# T1 construct: The HeLa nuclear extract was used as a source of HDAC activity; host or cells: HeLa (nuclear extract / cells)
# T1 sequence (Q13547 whole entry): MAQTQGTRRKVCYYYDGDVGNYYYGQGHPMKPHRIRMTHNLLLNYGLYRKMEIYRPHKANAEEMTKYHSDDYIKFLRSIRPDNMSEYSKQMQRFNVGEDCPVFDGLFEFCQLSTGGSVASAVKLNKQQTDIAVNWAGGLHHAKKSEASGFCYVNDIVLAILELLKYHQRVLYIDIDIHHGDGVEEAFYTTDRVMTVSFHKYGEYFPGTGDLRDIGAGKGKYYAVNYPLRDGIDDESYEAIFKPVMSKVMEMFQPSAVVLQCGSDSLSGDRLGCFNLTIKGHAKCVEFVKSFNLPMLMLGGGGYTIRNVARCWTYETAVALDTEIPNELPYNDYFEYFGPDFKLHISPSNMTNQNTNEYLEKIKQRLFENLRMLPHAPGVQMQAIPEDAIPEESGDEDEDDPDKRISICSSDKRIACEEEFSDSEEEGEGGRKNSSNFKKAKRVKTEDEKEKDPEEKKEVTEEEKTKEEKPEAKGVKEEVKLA
# Protocol: (§3) SAHA served as the assay’s positive control. The HeLa nuclear extract was used as a source of HDAC activity. The trypsinized HeLa cells were tallied, put into 96-well microtiter plates, and nurtured. Samples and the standard were placed in wells at a concentration of 100 µL. The culture environment was maintained as per the procedure. 3,3′,5,5′-tetramethylbenzidine (TMB) was included for visualization. Finally, 50 µL of halt solution was smeared. The samples and different SAHA concentrations (0.01, 0.1, 1, 10 μM) were introduced to the appropriate well and left for 72 h. BioTek Epoch (Winooski, VT, USA) microplate reader was used to quantify optical density at 450 nm. The Graph Pad Prism 5 helped to determine the IC50 values.
# HDAC6 = biological target: T2, HDAC6 (Homo sapiens, UniProt Q9UBN7); assay: HDAC inhibition assay (color de lys ELISA kit), HDAC6; format: biochemical; settings: HeLa nuclear extract as source of HDAC activity
# T2 construct: The HeLa nuclear extract was used as a source of HDAC activity; host or cells: HeLa (nuclear extract / cells)
# T2 sequence (Q9UBN7 1-1215): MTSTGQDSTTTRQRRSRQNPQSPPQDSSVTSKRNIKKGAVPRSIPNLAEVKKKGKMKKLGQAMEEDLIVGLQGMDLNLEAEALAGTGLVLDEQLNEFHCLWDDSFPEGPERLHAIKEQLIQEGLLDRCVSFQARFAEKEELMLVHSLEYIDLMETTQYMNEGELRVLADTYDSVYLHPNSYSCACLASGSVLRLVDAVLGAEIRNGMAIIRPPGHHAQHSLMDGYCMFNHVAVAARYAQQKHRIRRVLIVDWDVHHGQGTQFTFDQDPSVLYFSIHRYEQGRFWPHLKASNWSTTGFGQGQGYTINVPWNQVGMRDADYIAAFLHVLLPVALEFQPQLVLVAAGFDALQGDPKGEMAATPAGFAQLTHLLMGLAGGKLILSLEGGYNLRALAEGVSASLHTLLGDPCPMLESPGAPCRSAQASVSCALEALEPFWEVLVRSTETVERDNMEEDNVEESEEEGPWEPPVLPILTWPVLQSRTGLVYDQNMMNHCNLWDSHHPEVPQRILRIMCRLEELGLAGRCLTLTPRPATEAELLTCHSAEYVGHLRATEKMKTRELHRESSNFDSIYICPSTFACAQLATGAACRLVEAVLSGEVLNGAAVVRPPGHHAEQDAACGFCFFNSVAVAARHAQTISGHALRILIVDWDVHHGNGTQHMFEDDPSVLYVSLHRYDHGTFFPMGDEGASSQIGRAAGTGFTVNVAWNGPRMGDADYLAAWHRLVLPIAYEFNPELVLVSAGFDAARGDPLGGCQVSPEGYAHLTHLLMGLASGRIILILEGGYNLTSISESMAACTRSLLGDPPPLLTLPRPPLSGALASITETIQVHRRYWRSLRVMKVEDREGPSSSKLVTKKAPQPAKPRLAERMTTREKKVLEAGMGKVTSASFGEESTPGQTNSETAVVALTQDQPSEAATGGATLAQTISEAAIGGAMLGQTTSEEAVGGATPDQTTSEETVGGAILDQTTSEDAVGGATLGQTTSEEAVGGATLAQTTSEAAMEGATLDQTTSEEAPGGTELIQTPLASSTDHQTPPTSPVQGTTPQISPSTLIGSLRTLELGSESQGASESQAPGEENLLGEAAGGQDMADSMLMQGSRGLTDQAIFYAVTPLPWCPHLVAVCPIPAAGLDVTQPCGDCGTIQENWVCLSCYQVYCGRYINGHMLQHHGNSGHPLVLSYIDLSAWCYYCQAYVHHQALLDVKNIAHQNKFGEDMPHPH
# Protocol: as §3
# [3] = Homo sapiens, A549, A-549, 48 h, read-out: GI50
# [4] = Homo sapiens, MCF7, MCF-7, 48 h, read-out: GI50
Compound,"GI50 ([1]; A-549, 48 h) [mg/L]","GI50 ([2]; MCF-7, 48 h) [mg/L]","GI50 [1, 3] [mg/L]","GI50 [2, 4] [mg/L]",IC50 (HDAC1) [µM],IC50 (HDAC6) [µM]
"COc1cccc2c1C(=O)c1c(O)c3c(c(O)c1C2=O)C[C@@](O)(C(=O)CO)C[C@@H]3O[C@H]1C[C@H](N)[C@H](O)[C@H](C)O1 [ADR, reference compound]",<10,<10,,,,
"COc1ccc(-c2cnn(-c3ccc(C(=O)CCC(=O)NO)cc3)n2)cc1 [VI(a), N-Hydroxy-4-(4-(4-(4-methoxyphenyl)-2H-1,2,3-triazol-2-yl)phenyl)-4-oxobutanamide]",,,19.4,15.1,,
"O=C(CCC(=O)c1ccc(-n2ncc(-c3ccc([N+](=O)[O-])cc3)n2)cc1)NO [VI(b), N-Hydroxy-4-(4-(4-(4-nitrophenyl)-2H-1,2,3-triazol-2-yl)phenyl)-4-oxobutanamide]",,,< 10,< 10,21.1,24.2
"O=C(CCC(=O)c1ccc(-n2ncc(-c3ccc(Cl)cc3)n2)cc1)NO [VI(c), 4-(4-(4-(4-Chlorophenyl)-2H-1,2,3-triazol-2-yl)phenyl)-N-hydroxy-4-oxobutanamide]",,,< 10,< 10,21.2,31.7
"Cc1ccc(-c2cnn(-c3ccc(C(=O)CCC(=O)NO)cc3)n2)cc1 [VI(d), N-Hydroxy-4-oxo-4-(4-(4-(p-tolyl)-2H-1,2,3-triazol-2-yl)phenyl)butanamide]",,,14.7,12.9,,
"O=C(CCC(=O)c1ccc(-n2ncc(-c3ccc(O)cc3)n2)cc1)NO [VI(e), N-Hydroxy-4-(4-(4-(4-hydroxyphenyl)-2H-1,2,3-triazol-2-yl)phenyl)-4-oxobutanamide]",,,< 10,< 10,27.2,18.6
"O=C(CCC(=O)c1ccc(-n2ncc(-c3ccc(F)cc3)n2)cc1)NO [VI(f), 4-(4-(4-(4-Fluorophenyl)-2H-1,2,3-triazol-2-yl)phenyl)-N-hydroxy-4-oxobutanamide]",,,26.9,< 10,,
"COc1ccc(-c2cnn(-c3ccc(C(=O)CCC(=O)NO)cc3)n2)cc1OC [VI(g), 4-(4-(4-(3,4-Dimethoxyphenyl)-2H-1,2,3-triazol-2-yl)phenyl)-N-hydroxy-4-oxobutanamide]",,,53,15,,
"O=C(CCCCCn1ncc(-c2ccc(Cl)cc2)n1)NO [VI(h), 6-(4-(4-Chlorophenyl)-2H-1,2,3-triazol-2-yl)-N-hydroxyhexanamide]",,,> 80,50,,
"O=C(CCCCCn1ncc(-c2ccc(O)cc2)n1)NO [VI(j), N-Hydroxy-6-(4-(4-hydroxyphenyl)-2H-1,2,3-triazol-2-yl)hexanamide]",,,50,17,,
"Cc1ccc(-c2cnn(CCCCCC(=O)NO)n2)cc1 [VI(k), N-Hydroxy-6-(4-(p-tolyl)-2H-1,2,3-triazol-2-Yl)hexanamide]",,,> 80,14.9,,
"O=C(CCc1ccc(-n2ncc(-c3ccc(Cl)cc3)n2)cc1)NO [VI(l), 3-(4-(4-(4-Chlorophenyl)-2H-1,2,3-triazol-2-Yl)phenyl)-N-hydroxypropanamide]",,,> 80,> 80,,
"Cc1ccc(-c2cnn(-c3ccc(CCC(=O)NO)cc3)n2)cc1 [VI(m), N-Hydroxy-3-(4-(4-(p-tolyl)-2H-1,2,3-triazol-2-yl)phenyl)propanamide]",,,> 80,> 80,,
"O=C(CCc1ccc(-n2ncc(-c3ccc(O)cc3)n2)cc1)NO [VI(n), N-Hydroxy-3-(4-(4-(4-hydroxyphenyl)-2H-1,2,3-triazol-2-yl)phenyl)propanamide]",,,> 80,> 80,,
"COc1ccc(-c2cnn(-c3ccc(CCC(=O)NO)cc3)n2)cc1 [VI(o), N-Hydroxy-3-(4-(4-(4-methoxyphenyl)-2H-1,2,3-triazol-2-Yl)phenyl)propanamide]",,,62,> 80,,
